Laboratory results reported in publication PMC7986777 (Chemistry (Weinheim an Der Bergstrasse, Germany), 2021).

Key:
Test in all cases: fluorescent cephalosporin
Format in all cases: biochemical
NDM-1 = NDM-1 (Klebsiella pneumoniae, UniProt C7C422)
VIM-2 = VIM-2 (Pseudomonas aeruginosa, UniProt Q9K2N0); conditions: read-out: VIM-2 IC50; […] min pre-incubation, FC5 substrate, HEPES
IMP-28 = IMP-28 (Klebsiella oxytoca, UniProt G4WB26); conditions: read-out: IMP-28 IC50; […] min pre-incubation, FC5 substrate, HEPES
IMP-28, sequence (G4WB26 20-246): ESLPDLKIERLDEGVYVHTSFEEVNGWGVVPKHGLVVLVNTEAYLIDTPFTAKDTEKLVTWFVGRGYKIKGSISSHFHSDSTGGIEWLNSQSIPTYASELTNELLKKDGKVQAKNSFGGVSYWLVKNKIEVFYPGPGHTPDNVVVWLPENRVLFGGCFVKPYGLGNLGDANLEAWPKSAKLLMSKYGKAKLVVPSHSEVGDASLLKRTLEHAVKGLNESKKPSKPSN

NDM-1, sequence (C7C422 29-270, looked up): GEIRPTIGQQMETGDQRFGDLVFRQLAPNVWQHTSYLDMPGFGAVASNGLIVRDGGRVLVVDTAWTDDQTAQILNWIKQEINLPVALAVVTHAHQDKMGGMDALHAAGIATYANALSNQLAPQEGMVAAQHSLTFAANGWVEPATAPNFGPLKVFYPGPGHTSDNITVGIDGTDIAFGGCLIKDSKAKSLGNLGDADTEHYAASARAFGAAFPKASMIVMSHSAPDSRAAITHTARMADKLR

Row | SMILES | IC50 (NDM-1) | IC50 (VIM-2) | IC50 (IMP-28)
1 | Sc1cccc2cccnc12 [8-TQ] | 2.99 ± 0.58 µM | 4.2 ± 1 µM | 4.2 ± 0.11 µM
2 | O=C(O)c1cccc(C(=O)O)n1 [DPA] |  | 4.34 ± 0.67 µM | 9.65 ± 0.62 µM
3 | O=C(Cc1ccccc1)N[C@@H]1C(=O)N2C(C(=O)O)=C(CSc3cccc4cccnc34)CS[C@H]12 [compound 6] |  | 3.64 ± 0.27 µM | 10.3 ± 0.22 µM
4 | O=C(Cc1ccccc1)N[C@@H]1C(=O)N2C(C(=O)O)=C(CSc3cccc4cccnc34)C[S+]([O-])[C@H]12 (stereo partly shown) [compound 7] | 2.18 ± 0.14 µM | 6.35 ± 0.56 µM | 71.9 ± 3.05 µM
5 | O=C(Cc1ccccc1)N[C@@H]1C(=O)N2C(C(=O)O)=C(CSc3cccc4cccnc34)CS(=O)(=O)[C@H]12 [compound 8] | 8.47 ± 1.02 µM | 4.17 ± 0.65 µM | 46.2 ± 3.13 µM
6 | O=C(Cc1ccccc1)N[C@@H]1C(=O)N2C(C(=O)O)=C(COC(=O)c3cccc(C(=O)O)n3)CS[C@H]12 [compound 13] | 2.13 ± 0.07 µM | 1.87 ± 0.1 µM | 7.39 ± 0.1 µM
7 | O=C(Cc1ccccc1)N[C@@H]1C(=O)N2C(C(=O)O)=C(COC(=O)c3cccc(C(=O)O)n3)C[S+]([O-])[C@H]12 (stereo partly shown) [compound 14] | 0.299 ± 0.005 µM | 0.756 ± 0.056 µM | 46.7 ± 2.76 µM
8 | O=C(Cc1ccccc1)N[C@@H]1C(=O)N2C(C(=O)O)=C(COC(=O)c3cccc(C(=O)O)n3)CS(=O)(=O)[C@H]12 [compound 15] | 18.8 ± 1.22 µM | 10.8 ± 0.6 µM | 61.9 ± 1.82 µM
